We go through one compound from ChEMBL document CHEMBL4177690, “(E)-3-(3,4,5-Trimethoxyphenyl)-1-(pyridin-4-yl)prop-2-en-1-one, a heterocyclic chalcone is a potent and selective CYP1A1 inhibitor and cancer chemopreventive agent” (Bioorg Med Chem Lett, 2017).

The target in data set [1] is T1, Cytochrome P450 1A1 (Homo sapiens, UniProt P04798).
T1 sequence (P04798 whole entry): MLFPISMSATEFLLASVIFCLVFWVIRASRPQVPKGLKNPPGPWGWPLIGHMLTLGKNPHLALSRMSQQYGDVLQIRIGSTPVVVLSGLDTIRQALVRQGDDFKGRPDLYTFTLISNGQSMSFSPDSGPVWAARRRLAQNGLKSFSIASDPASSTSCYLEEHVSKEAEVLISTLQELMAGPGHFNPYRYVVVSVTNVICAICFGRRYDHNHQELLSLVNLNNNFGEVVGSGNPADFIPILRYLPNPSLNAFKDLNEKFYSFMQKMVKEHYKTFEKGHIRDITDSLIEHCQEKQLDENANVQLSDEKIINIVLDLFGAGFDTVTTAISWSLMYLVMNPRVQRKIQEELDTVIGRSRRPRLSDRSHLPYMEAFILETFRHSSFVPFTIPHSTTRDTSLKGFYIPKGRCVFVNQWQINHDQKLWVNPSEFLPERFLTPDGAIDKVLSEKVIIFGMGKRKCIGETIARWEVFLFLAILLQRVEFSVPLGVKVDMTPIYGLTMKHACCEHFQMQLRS
The data set is described as follows: Inhibition of human CYP1A1 expressed in yeast microsomal membranes using 7-ethoxyresorufin as substrate measured after 10 mins by fluorescence assay. The class given is cell membranes.

Data set [2] deals with T2, Cytochrome P450 1A2 (Homo sapiens, UniProt P05177).
T2 sequence (P05177 whole entry): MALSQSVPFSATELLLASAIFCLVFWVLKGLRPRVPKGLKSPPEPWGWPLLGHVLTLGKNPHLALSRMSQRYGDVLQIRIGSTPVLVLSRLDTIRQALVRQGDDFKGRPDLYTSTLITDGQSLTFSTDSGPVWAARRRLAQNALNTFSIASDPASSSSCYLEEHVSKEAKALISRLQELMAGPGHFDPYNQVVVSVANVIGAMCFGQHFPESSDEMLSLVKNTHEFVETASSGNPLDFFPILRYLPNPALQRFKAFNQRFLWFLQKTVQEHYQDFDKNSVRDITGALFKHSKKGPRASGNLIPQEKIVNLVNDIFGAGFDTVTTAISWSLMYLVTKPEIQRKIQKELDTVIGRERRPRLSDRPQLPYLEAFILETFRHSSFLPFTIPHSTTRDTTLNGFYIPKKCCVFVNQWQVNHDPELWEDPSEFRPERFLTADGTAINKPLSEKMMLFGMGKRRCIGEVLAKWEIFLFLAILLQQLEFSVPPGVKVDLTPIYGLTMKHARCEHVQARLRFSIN
The experiment in a line: Inhibition of human CYP1A2 expressed in yeast microsomal membranes using 3-cyano-7-ethoxycoumarin as substrate measured after 10 mins by fluorescence assay. It counts as ADME, cell membranes, Microsomal Membrane.

In data set [3] the target is Cytochrome P450 2C9 (Homo sapiens, UniProt P11712). The experiment in a line: Inhibition of human CYP2C9 expressed in yeast microsomal membranes using 3-cyano-7-ethoxycoumarin as substrate measured after 10 mins by fluorescence assay. The class given is ADME, cell membranes, Microsomal Membrane.
Cytochrome P450 2C9, sequence (P11712 whole entry): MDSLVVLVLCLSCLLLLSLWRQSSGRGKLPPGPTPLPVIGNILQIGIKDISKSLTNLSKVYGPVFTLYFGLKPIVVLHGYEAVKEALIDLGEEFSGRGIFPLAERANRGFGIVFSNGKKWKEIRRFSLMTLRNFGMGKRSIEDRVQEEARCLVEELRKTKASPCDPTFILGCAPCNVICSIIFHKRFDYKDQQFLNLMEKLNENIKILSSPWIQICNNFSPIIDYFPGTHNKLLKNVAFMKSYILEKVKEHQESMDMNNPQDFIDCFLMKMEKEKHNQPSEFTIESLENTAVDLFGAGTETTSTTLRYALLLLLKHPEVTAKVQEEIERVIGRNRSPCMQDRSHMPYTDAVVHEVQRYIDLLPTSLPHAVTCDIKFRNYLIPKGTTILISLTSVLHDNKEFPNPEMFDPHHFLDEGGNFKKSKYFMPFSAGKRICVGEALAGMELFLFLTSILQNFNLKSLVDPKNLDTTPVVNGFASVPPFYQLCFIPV
For data set [4], the target named is Cytochrome P450 3A4 (Homo sapiens, UniProt P08684). The data set is described as follows: Inhibition of human CYP3A4 expressed in yeast microsomal membranes using dibenzylfluorescein as substrate measured after 10 mins by fluorescence assay. The class given is ADME, cell membranes, Microsomal Membrane.
Cytochrome P450 3A4, sequence (P08684 whole entry): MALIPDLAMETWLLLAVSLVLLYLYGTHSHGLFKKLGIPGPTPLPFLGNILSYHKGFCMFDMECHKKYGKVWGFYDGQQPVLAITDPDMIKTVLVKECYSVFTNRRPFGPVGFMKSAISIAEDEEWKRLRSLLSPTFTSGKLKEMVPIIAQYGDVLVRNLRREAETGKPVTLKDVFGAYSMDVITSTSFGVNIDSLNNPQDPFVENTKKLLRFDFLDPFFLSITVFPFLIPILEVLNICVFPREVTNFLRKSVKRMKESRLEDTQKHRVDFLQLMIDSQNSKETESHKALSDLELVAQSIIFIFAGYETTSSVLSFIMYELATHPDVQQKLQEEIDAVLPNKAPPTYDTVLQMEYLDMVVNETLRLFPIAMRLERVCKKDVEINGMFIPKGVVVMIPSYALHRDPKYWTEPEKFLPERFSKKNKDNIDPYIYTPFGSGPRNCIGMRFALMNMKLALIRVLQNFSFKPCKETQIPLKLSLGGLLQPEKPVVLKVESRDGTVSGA
Data set [5] deals with T1, Cytochrome P450 1A1. The data set is described as follows: Inhibition of recombinant human CYP1A1 expressed in HEK293 cells using 7-ethoxyresorufin as substrate pretreated for 30 mins followed by substrate addition measured for 60 mins by fluorescence assay. The class given is cell-based.
Data set [6] addresses T2, Cytochrome P450 1A2. The data set is described as follows: Inhibition of recombinant human CYP1A2 expressed in HEK293 cells using 3-cyano-7-ethoxycoumarin as substrate pretreated for 30 mins followed by substrate addition measured for 60 mins by fluorescence assay. The class given is ADME.
In data set [7] the target is Cytochrome P450 2C19 (Homo sapiens, UniProt P33261). The data set is described as follows: Inhibition of recombinant human CYP2C19 expressed in HEK293 cells using 3-cyano-7-ethoxycoumarin as substrate pretreated for 30 mins followed by substrate addition measured for 60 mins by fluorescence assay. It counts as ADME.
Cytochrome P450 2C19, sequence (P33261 whole entry): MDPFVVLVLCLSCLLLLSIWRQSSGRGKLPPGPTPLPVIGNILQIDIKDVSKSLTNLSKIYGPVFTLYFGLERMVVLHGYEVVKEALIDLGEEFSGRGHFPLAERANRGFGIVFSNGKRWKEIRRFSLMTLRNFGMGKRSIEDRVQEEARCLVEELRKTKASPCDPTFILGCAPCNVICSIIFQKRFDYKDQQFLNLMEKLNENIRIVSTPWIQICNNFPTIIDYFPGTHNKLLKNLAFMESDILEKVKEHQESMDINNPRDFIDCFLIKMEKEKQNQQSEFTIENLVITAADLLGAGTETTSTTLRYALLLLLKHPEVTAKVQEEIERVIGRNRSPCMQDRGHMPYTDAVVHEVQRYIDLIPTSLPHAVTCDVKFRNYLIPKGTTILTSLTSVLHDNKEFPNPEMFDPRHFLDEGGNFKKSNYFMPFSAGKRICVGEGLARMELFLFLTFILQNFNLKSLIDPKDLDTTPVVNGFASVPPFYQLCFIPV
For data set [8], the species on record is Homo sapiens. The data set is described as follows: Selectivity ratio of IC50 for recombinant human CYP1B1 expressed in HEK293 cells to IC50 for recombinant human CYP1A1 expressed in HEK293 cells. It counts as cell-based.
Data set [9] is filed under the species Homo sapiens. The data set is described as follows: Selectivity ratio of IC50 for recombinant human CYP1A2 expressed in HEK293 cells to IC50 for recombinant human CYP1A1 expressed in HEK293 cells. The class given is cell-based.
Data set [10] addresses T1, Cytochrome P450 1A1. The experiment in a line: Time-dependent inhibition of human CYP1A1 expressed in yeast microsomal membranes using 7-ethoxyresorufin as substrate. The class given is cell membranes.
For data set [11], the target named is T2, Cytochrome P450 1A2. The experiment in a line: Inhibition of human CYP1A2 expressed in yeast cells. The class given is ADME, cell-based.
Data set [12] deals with T3, Cytochrome P450 2C8 (Homo sapiens, UniProt P10632).
T3 sequence (P10632 whole entry): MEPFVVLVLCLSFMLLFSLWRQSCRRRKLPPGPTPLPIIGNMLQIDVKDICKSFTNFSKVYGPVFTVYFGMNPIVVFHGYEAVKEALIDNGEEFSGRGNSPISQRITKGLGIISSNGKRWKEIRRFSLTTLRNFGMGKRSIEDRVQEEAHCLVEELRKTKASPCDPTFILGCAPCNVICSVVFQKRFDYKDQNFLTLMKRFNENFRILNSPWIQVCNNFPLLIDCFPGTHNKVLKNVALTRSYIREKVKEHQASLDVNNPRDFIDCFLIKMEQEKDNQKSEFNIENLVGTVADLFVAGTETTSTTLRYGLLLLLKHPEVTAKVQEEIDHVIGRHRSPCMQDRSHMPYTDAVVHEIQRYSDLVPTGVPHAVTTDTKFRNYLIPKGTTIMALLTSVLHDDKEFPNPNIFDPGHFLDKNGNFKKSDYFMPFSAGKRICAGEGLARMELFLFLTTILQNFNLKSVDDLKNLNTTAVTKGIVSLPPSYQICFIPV
The experiment in a line: Inhibition of human CYP2C8 expressed in yeast cells. The class given is ADME, cell-based.

Data set [13] concerns the target T4, Cytochrome P450 2J2 (Homo sapiens, UniProt P51589).
T4 sequence (P51589 whole entry): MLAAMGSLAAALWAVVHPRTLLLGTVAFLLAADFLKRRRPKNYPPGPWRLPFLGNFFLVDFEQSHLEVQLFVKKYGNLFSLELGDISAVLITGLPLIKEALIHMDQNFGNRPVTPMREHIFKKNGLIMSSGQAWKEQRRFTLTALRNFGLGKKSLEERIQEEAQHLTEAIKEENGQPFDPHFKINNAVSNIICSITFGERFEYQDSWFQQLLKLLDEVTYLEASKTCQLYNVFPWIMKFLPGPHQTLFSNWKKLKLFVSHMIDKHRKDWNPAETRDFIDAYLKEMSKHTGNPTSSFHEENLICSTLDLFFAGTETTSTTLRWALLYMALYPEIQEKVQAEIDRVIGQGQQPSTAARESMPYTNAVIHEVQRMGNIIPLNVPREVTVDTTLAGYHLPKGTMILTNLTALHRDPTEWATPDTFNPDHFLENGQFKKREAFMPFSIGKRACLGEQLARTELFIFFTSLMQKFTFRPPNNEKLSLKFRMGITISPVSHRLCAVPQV
The data set is described as follows: Inhibition of human CYP2J2 expressed in yeast cells. It counts as ADME, cell-based.

For data set [14], the species on record is Homo sapiens. The experiment in a line: Selectivity ratio of IC50 for recombinant human CYP2C9 to IC50 for recombinant human CYP1A1.
The species entered for data set [15] is Homo sapiens. The data set is described as follows: Selectivity ratio of IC50 for recombinant human CYP2C19 to IC50 for recombinant human CYP1A1.
For data set [16], the species on record is Homo sapiens. The data set is described as follows: Selectivity ratio of IC50 for recombinant human CYP3A4 to IC50 for recombinant human CYP1A1.

pIC50: −log10 of the molar value.

As for `COc1cc(/C=C/C(=O)c2ccncc2)cc(OC)c1OC`, the pIC50 in data set [1] was 7.21; in data set [2], 5.96; in [3], < 4.70; in data set [4], < 4.70; in [5], 7.24; in data set [6], 5.95. For the same compound, the pIC50 is < 5.00 in [7], 5.74 in data set [11], 5.05 in data set [12] and < 4.70 in [13]. Also, the Ratio IC50 in data set [8] was < 10; in data set [9], < 10; in [14], > 100; in data set [15], > 100; in data set [16], > 100. The TDI result in data set [10] is “Not Active”.
